Tests used:
Assay type in all cases: cell-based
Parameters in all cases: dose or concentration left out as unconfirmed
Details in all cases: 96 hours
[1] = tested on: breast tumor cell line MCF-7; assay: Trypan blue exclusion viability assay, MCF-7
Description: (§1) MCF-7 is estrogen-responsive, while BT-20 is an estrogen-unresponsive cell line. NIH/3T3 and HFL are normal murine and human fibroblasts, respectively. MCF-7, BT-20, DLD-1 and H157 were grown in Dulbecco's modified Eagle's medium (DMEM) containing 10% fetal bovine serum supplemented with penicillin and streptomycin. DU145 was cultured in RPMI with 10% fetal bovine serum containing penicillin and streptomycin. […] All cell cultures were maintained at 37° C. in a humidified atmosphere of 5% CO2. Cells were treated with test compound at 2.5 mM concentration and cell viability was determined after 96 hours by the Trypan blue exclusion method.

[2] = tested on: colorectal carcinoma cell line DLD-1; assay: Trypan blue exclusion viability assay, DLD-1
Description: as §1

[3] = tested on: prostate tumor cell line DU-145; assay: Trypan blue exclusion viability assay, DU145
Description: as §1

[4] = tested on: non-small cell lung carcinoma cell line H157; assay: Trypan blue exclusion viability assay, H157
Description: as §1

[5] = tested on: breast tumor cell line BT-20; assay: Trypan blue exclusion viability assay, BT20
Description: as §1

Structure (SMILES) | Cell death, MCF-7 [1] | Cell death, DLD-1 [2] | Cell death, DU145 [3] | Cell death, H157 [4] | Cell death, BT20 [5]
O=S(=O)(/C=C/c1ccc(Cl)cc1Cl)Cc1ccc(Cl)cc1 [Example 16, (E)-2,4-Dichlorostyryl-4-chlorobenzylsulfone] | ++++ (50-60% = ++++) | ++++ (50-60% = ++++) | +++ (40-50% = +++) | – | –
O=S(=O)(/C=C/c1ccc(Cl)c(Cl)c1)Cc1ccc(Cl)cc1 [Example 17, (E)-3,4-Dichlorostyryl-4-chlorobenzylsulfone] | + (5-10%: = +) | + (5-10%: = +) | + (5-10%: = +) | – | –
N#Cc1ccc(CS(=O)(=O)/C=C/c2ccc(F)cc2)cc1 [Example 10, (E)-4-Fluorostyryl-4-cyanobenzylsulfone] | +++ (40-50% = +++) | – | ++ (10-15% = ++) | +++ (40-50% = +++) | –
O=S(=O)(/C=C/c1ccc(I)cc1)Cc1ccc(Br)cc1 [Example 22, (E)-4-Iodostyryl-4-bromobenzylsulfone] | – | ++ (10-15% = ++) | ++ (10-15% = ++) | ++ (10-15% = ++) | ++ (10-15% = ++)
O=S(=O)(/C=C/c1cccc(C(F)(F)F)c1)Cc1ccc(F)cc1 [Example 33, (E)-3-trifluoromethylstyryl-4-fluorobenzylsulfone] | – | + (5-10%: = +) | + (5-10%: = +) | + (5-10%: = +) | + (5-10%: = +)
O=[N+]([O-])c1ccccc1/C=C/S(=O)(=O)Cc1ccc(Cl)cc1 [Example 36, (E)-2-nitrostyryl-4-chlorobenzylsulfone] | – | + (5-10%: = +) | + (5-10%: = +) | + (5-10%: = +) | + (5-10%: = +)
O=S(=O)(/C=C/c1ccc(C(F)(F)F)cc1)Cc1ccc(Cl)cc1 [Example 41, (E)-4-trifluoromethylstyryl-4-chlorobenzylsulfone] | – | + (5-10%: = +) | + (5-10%: = +) | + (5-10%: = +) | + (5-10%: = +)
O=[N+]([O-])c1ccc(CS(=O)(=O)/C=C/c2ccc(F)cc2)cc1 [Example 67, (E)-4-fluorostyryl-4-nitrobenzylsulfone] | – | + (5-10%: = +) | + (5-10%: = +) | + (5-10%: = +) | + (5-10%: = +)
O=[N+]([O-])c1ccccc1/C=C/S(=O)(=O)Cc1ccc(F)cc1 [Example 29, (E)-2-nitrostyryl-4-fluorobenzylsulfone] | – | + (5-10%: = +) | + (5-10%: = +) | + (5-10%: = +) | + (5-10%: = +)
O=[N+]([O-])c1ccc(/C=C/S(=O)(=O)Cc2ccc(Br)cc2)cc1 [Example 48, (E)-4-nitrostyryl-4-bromobenzylsulfone] | – | ++++ (50-60% = ++++) | ++++ (50-60% = ++++) | ++++ (50-60% = ++++) | ++++ (50-60% = ++++)
O=S(=O)(/C=C/c1cccc(Cl)c1Cl)Cc1ccc(Cl)cc1 [Example 18, (E)-2,3-Dichlorostyryl-4-chlorobenzylsulfone] | + (5-10%: = +) | + (5-10%: = +) | + (5-10%: = +) | – | –
O=[N+]([O-])c1ccc(/C=C/S(=O)(=O)Cc2ccc(Cl)cc2)cc1 [Example 38, (E)-4-nitrostyryl-4-chlorobenzylsulfone] | – | ++++ (50-60% = ++++) | ++++ (50-60% = ++++) | ++++ (50-60% = ++++) | ++++ (50-60% = ++++)
O=S(=O)(/C=C/c1ccccc1C(F)(F)F)Cc1ccc(Br)cc1 [Example 49, (E)-2-trifluoromethylstyryl-4-bromobenzylsulfone] | – | + (5-10%: = +) | + (5-10%: = +) | + (5-10%: = +) | + (5-10%: = +)
O=[N+]([O-])c1cccc(/C=C/S(=O)(=O)Cc2ccc(Br)cc2)c1 [Example 47, (E)-3-nitrostyryl-4-bromobenzylsulfone] | – | + (5-10%: = +) | + (5-10%: = +) | + (5-10%: = +) | + (5-10%: = +)
O=S(=O)(/C=C/c1ccc(I)cc1)Cc1ccc(Cl)cc1 [Example 21, (E)-4-Iodostyryl-4-chlorobenzylsulfone] | – | ++ (10-15% = ++) | ++ (10-15% = ++) | ++ (10-15% = ++) | ++ (10-15% = ++)
O=S(=O)(/C=C/c1ccc(F)cc1C(F)(F)F)Cc1ccc(F)cc1 [Example 35, (E)-2-trifluoromethy-4-fluorostyryl-4-fluorobenzylsulfone] | – | + (5-10%: = +) | + (5-10%: = +) | + (5-10%: = +) | + (5-10%: = +)
O=[N+]([O-])c1ccc(/C=C/S(=O)(=O)Cc2ccc(F)cc2)cc1 [Example 31, (E)-4-nitrostyryl-4-fluorobenzylsulfone] | – | ++++ (50-60% = ++++) | ++++ (50-60% = ++++) | ++++ (50-60% = ++++) | ++++ (50-60% = ++++)
COc1ccc(CS(=O)(=O)/C=C/c2ccccc2[N+](=O)[O-])cc1 [Example 63, (E)-2-nitrostyryl-4-methoxybenzylsulfone] | – | + (5-10%: = +) | + (5-10%: = +) | + (5-10%: = +) | + (5-10%: = +)
O=S(=O)(/C=C/c1ccc(F)cc1C(F)(F)F)Cc1ccc(Cl)cc1Cl [Example 45, (E)-2-trifluoromethyl-4-fluorostyryl-2,4-dichlorobenzylsulfone] | – | +++ (40-50% = +++) | +++ (40-50% = +++) | +++ (40-50% = +++) | +++ (40-50% = +++)
O=[N+]([O-])c1ccc(CS(=O)(=O)/C=C/c2ccc(Cl)cc2)cc1 [Example 66, (E)-4-chlorostyryl-4-nitrobenzylsulfone] | – | + (5-10%: = +) | + (5-10%: = +) | + (5-10%: = +) | + (5-10%: = +)
O=[N+]([O-])c1ccccc1/C=C/S(=O)(=O)Cc1ccc(Cl)cc1Cl [Example 44, (E)-2-nitrostyryl-2,4-dichlorobenzylsulfone] | – | + (5-10%: = +) | + (5-10%: = +) | + (5-10%: = +) | + (5-10%: = +)
O=[N+]([O-])c1ccccc1/C=C/S(=O)(=O)Cc1ccc(Br)cc1 [Example 46, (E)-2-nitrostyryl-4-bromobenzylsulfone] | – | + (5-10%: = +) | + (5-10%: = +) | + (5-10%: = +) | + (5-10%: = +)
N#Cc1ccc(CS(=O)(=O)/C=C/c2ccc(Cl)cc2)cc1 [Example 11, (E)-4-Chlorostyryl-4-cyanobenzylsulfone] | + (5-10%: = +) | – | + (5-10%: = +) | + (5-10%: = +) | –
O=S(=O)(/C=C/c1ccccc1C(F)(F)F)Cc1ccc(Cl)cc1 [Example 39, (E)-2-trifluoromethylstyryl-4-chlorobenzylsulfone] | – | + (5-10%: = +) | + (5-10%: = +) | + (5-10%: = +) | + (5-10%: = +)
O=[N+]([O-])c1ccccc1/C=C/S(=O)(=O)Cc1ccc(I)cc1 [Example 25, (E)-2-Nitrostyryl-4-iodobenzylsulfone] | – | ++ (10-15% = ++) | ++ (10-15% = ++) | ++ (10-15% = ++) | ++ (10-15% = ++)

— US6762207B1, “(E)-styryl sulfone anticancer agents” (priority 1999, dated 2004)
